In ChEMBL document CHEMBL1152178, “Calmodulin inhibitory activity of the malbrancheamides and various analogs” (Bioorg Med Chem Lett, 2008):
pIC50: −log10 of the molar value.

Key:
Bos taurus = species on record: Bos taurus; assay: Ratio of IC50 of chlorpromazine to IC50 of compound for bovine brain PDE1
[1] = Inhibition of bovine brain PDE1; set-up: species or system Bos taurus

Row | SMILES | Ratio IC50 (Bos taurus) | pIC50 [1]
1 | CC1(C)c2[nH]c3ccccc3c2C[C@@]23CN4CCC[C@]4(C[C@@H]12)C(=O)N3 | 0.5 | 4.45
2 | CC1(C)c2[nH]c3cc(Cl)c(Cl)cc3c2C[C@@]23CN4CCC[C@]4(C[C@H]12)C(=O)N3 | 0.1 | 3.87
3 | CC1(C)c2[nH]c3cc(Cl)ccc3c2C[C@@]23CN4CCC[C@]4(C[C@@H]12)C(=O)N3 [MALBRANCHEAMIDE B] | 0.1 | 3.74
4 | CC1(C)c2[nH]c3ccccc3c2C[C@@]23NC(=O)[C@]4(CCCN4C2=O)C[C@H]13 | 0.7 | 4.63
5 | CC1(C)c2[nH]c3ccccc3c2C[C@@]23NC(=O)[C@]4(CCCN4C2=O)C[C@@H]13 | 0.1 | 3.82
6 | CC1(C)c2[nH]c3cc(Cl)ccc3c2C[C@@]23NC(=O)[C@]4(CCCN4C2=O)C[C@@H]13 | 0.2 | 4.21
7 | CC1(C)c2[nH]c3cc(Cl)ccc3c2CC23CN4CCCC4(CC21)C(=O)N3 (racemic) [D,L-MALBRANCHEAMIDE B] | 0.3 | 4.37
8 | CC1(C)c2[nH]c3cc(Cl)c(Cl)cc3c2C[C@@]23CN4CCC[C@]4(C[C@@H]12)C(=O)N3 | 0.9 | 4.71
9 | CC1(C)c2[nH]c3ccc(Cl)cc3c2C[C@@]23CN4CCC[C@]4(C[C@@H]12)C(=O)N3 | 0.2 | 4.22
10 | CC1(C)c2[nH]c3ccc(Cl)c(Cl)c3c2C[C@@]23CN4CCC[C@]4(C[C@H]12)C(=O)N3 | 0.1 | 4.09
11 | CC1(C)c2[nH]c3cc(Cl)c(Cl)cc3c2CC23CN4CCCC4(CC21)C(=O)N3 (racemic) | 1.1 | 4.80
12 | CC1(C)c2[nH]c3cc(Cl)c(Cl)cc3c2C[C@@]23NC[C@]4(CCCN4C2=O)C[C@H]13 | 0.9 | 4.92

More lines, now with the values ahead:

Row | Ratio IC50 (Bos taurus) | pIC50 [1] | SMILES
13 | 0.4 | 4.50 | CC1(C)c2[nH]c3ccc(Cl)cc3c2C[C@@]23NC(=O)[C@]4(CCCN4C2=O)C[C@@H]13
14 | 0.3 | 4.37 | CC1(C)c2[nH]c3cc(Cl)ccc3c2C[C@@]23NC(=O)[C@]4(CCCN4C2=O)C[C@H]13
15 | 0.9 | 4.73 | CC1(C)c2[nH]c3cc(Cl)c(Cl)cc3c2C[C@@]23NC(=O)[C@]4(CCCN4C2=O)C[C@@H]13
16 | 0.5 | 4.47 | CC1(C)c2[nH]c3cc(Cl)c(Cl)cc3c2C[C@@]23NC(=O)[C@]4(CCCN4C2=O)C[C@H]13
17 | 0.2 | 4.34 | CC1(C)c2[nH]c3ccc(Cl)c(Cl)c3c2C[C@@]23NC(=O)[C@]4(CCCN4C2=O)C[C@H]13
18 | 0.4 | 4.56 | CC1(C)c2[nH]c3ccc(Cl)c(Cl)c3c2C[C@@]23NC[C@]4(CCCN4C2=O)C[C@H]13
19 | 0.2 | 4.21 | CC1(C)c2[nH]c3ccc(Cl)cc3c2C[C@@]23NC(=O)[C@]4(CCCN4C2=O)C[C@H]13
